From patent US20250353873A1, “COMPOUNDS AND METHODS FOR MODULATING APOE EXPRESSION” (Ionis Pharmaceuticals, Inc., priority 2024, published 2025)
“And” between values parts separate entries of the source, which are not always exact repeats. Identical values can stand only once. Marks after values point to notes of the source that are not given here. Strand notation (5' to 3'): a small letter for the sugar, then the base; units joined by * are phosphorothioate-linked, units joined directly phosphodiester-linked; [ ] holds rarer units or linkages, { } end groups; capitals alone tell only the bases. [ms] = mesyl phosphoramidate linkage; e = 2'-O-(2-methoxyethyl) (MOE); k = constrained ethyl (cEt); [5mC] = 5-methylcytosine; d = 2'-deoxy (DNA)

Experiments:
human APOE RNA [1] = test: Dose-dependent inhibition of human APOE RNA in HepG2 cells, electroporation, 50,000 cells per well, RT-PCR normalized to GAPDH (Example 4, Tables 8-10); assay type: cell-based; conditions: HepG2 cells, electroporation, Table 8
Summary of the method: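 Readout is percent APOE RNA versus untreated controls, measured by RT-PCR (primer probe set RTS3073) and normalized to human GAPDH. Modified oligonucleotides were delivered by electroporation at varying doses into HepG2 cells plated at 50,000 per well.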

human APOE RNA [2] = test: Activity in APOE C57BL/6NTac-Apoeem7250 knock-in mice, single ICV bolus, 16 weeks (Example 12); assay type: in vivo; conditions: single ICV bolus 300 μg, 16 weeks post treatment, normalized to mouse Ppia
Summary of the method: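 A single 300 μg intracerebroventricular dose was given, with PBS-treated mice as reference; cortical and spinal cord tissue was taken 16 weeks later. RT-qPCR quantified human APOE RNA, Ppia-normalized, expressed relative to PBS animals (% control).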

human APOE RNA [3] = test: Activity in APOE C57BL/6NTac-Apoeem7250 knock-in mice, single ICV bolus, 20 weeks (Example 13); assay type: in vivo; conditions: single ICV bolus 300 μg, 20 weeks post treatment, normalized to mouse Ppia
Summary of the method: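 Cortical and spinal cord RNA was assayed by real-time RT-PCR for human APOE, normalized to mouse Ppia and reported as percent of PBS controls. Tissue was taken twenty weeks after one 300 μg intracerebroventricular bolus in APOE knock-in mice, 4 per group.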

human APOE RNA [4] = test: Potency (dose response, ED50) in APOE C57BL/6NTac-Apoeem7250 knock-in mice, 8 weeks (Example 15); assay type: in vivo; conditions: for ED 50 (μg) Cortex / ED 50 (μg) Spinal Cord: single ICV bolus, GraphPad Prism 10
Experimental: Modified oligonucleotides described above were tested in the APOE C57BL/6NTac-Apoeem7250 knock-in mouse model described above.
APOE C57BL/6NTac-Apoeem7250 knock-in mice were divided into groups of 3-4 mice each. A group of 4 mice received a single ICV bolus with PBS as a negative control.
Eight weeks post treatment, mice were sacrificed, and RNA was extracted from cortical brain tissue and spinal cord for quantitative real-time RT-PCR analysis of RNA expression of […] using human primer probe set RTS3073 (described herein above). APOE RNA levels were normalized to mouse Ppia. Mouse Ppia was amplified using primer probe set m_cyclo24 (described herein above). Results are presented as percent human APOE RNA relative to the amount of APOE RNA in PBS treated animals, (% control). N.C. indicates values that were not calculated.
The half maximal effective dose (ED50) of each modified oligonucleotide was calculated using GraphPad Prism 10 software (GraphPad Software, San Diego, CA).

human APOE RNA [5] = test: Duration of action study in APOE C57BL/6NTac-Apoeem7250 knock-in mice (Example 16); assay type: in vivo; conditions: 300 μg ICV
Summary of the method: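 Knock-in mice (2-4 per group) received a single ICV bolus of 300 μg oligonucleotide or PBS. At various timepoints, cortex and spinal cord human APOE RNA was measured by RT-qPCR (RTS3073), normalized to mouse Ppia and expressed as % of PBS control.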

human APOE RNA [6] = test: Duration of action study in APOE C57BL/6NTac-Apoeem7250 knock-in mice (Example 18); assay type: in vivo
Experimental: Modified oligonucleotides described above were tested in the APOE C57BL/6NTac-Apoeem7250 knock-in model (described above).
Each mouse received a single intracerebroventricular (ICV) bolus of 300 μg of modified oligonucleotide. A group of 4-6 mice received a single ICV bolus with PBS as a negative control.
Mice were sacrificed at various timepoints as indicated in the table below and RNA was extracted from cortical brain tissue and spinal cord for quantitative real-time RT-PCR analysis of RNA expression of APOE using primer probe set RTS3073 (described herein above). APOE RNA levels were normalized to mouse Ppia. Mouse Ppia was amplified using primer probe set m_cyclo24 (described herein above). Results are presented as percent human APOE RNA relative to the amount of human APOE RNA in PBS treated animals, (% control). Each experiment is identified in separate tables below.

[7] = 196 days post-dose, single ICV bolus 300 μg, APOE knock-in mice, normalized to mouse Ppia, relative to PBS
[8] = 224 days post-dose, single ICV bolus 300 μg, APOE knock-in mice, normalized to mouse Ppia, relative to PBS
[9] = 285 days post-dose, single ICV bolus 300 μg, APOE knock-in mice, normalized to mouse Ppia, relative to PBS

Substance	APOE RNA (% control) Cortex (human APOE RNA [4]; ICV dose 10 μg)	APOE RNA (% control) Cortex (human APOE RNA [4]; ICV dose 30 μg)	APOE RNA (% control) Cortex (human APOE RNA [4]; ICV dose 100 μg)	APOE RNA (% control) Cortex (human APOE RNA [4]; ICV dose 300 μg)	APOE RNA (% control) Cortex (human APOE RNA [4]; ICV dose 700 μg)	ED 50 (μg) Cortex (human APOE RNA [4])	APOE RNA (% control) Spinal Cord (human APOE RNA [4]; ICV dose 10 μg)	APOE RNA (% control) Spinal Cord (human APOE RNA [4]; ICV dose 30 μg)	APOE RNA (% control) Spinal Cord (human APOE RNA [4]; ICV dose 100 μg)	APOE RNA (% control) Spinal Cord (human APOE RNA [4]; ICV dose 300 μg)	APOE RNA (% control) Spinal Cord (human APOE RNA [4]; ICV dose 700 μg)	ED 50 (μg) Spinal Cord (human APOE RNA [4])	APOE RNA (% control) Cortex (human APOE RNA [5]; 7 days post-dose)	APOE RNA (% control) Cortex (human APOE RNA [5]; 14 days post-dose)	APOE RNA (% control) Spinal Cord (human APOE RNA [5]; 7 days post-dose)	APOE RNA (% control) Spinal Cord (human APOE RNA [5]; 14 days post-dose)	APOE RNA (% control) Cortex (human APOE RNA [6]; 300 μg ICV, 28 days post-dose)	APOE RNA (% control) Cortex (human APOE RNA [6]; 300 μg ICV, 112 days post-dose)	APOE RNA (% control) Cortex (human APOE RNA [6]; 300 μg ICV, 140 days post-dose)	APOE RNA (% control) Cortex (human APOE RNA [6]; [7])	also measured
1785599: modified oligonucleotide complementary to human APOE RNA (k[5mC]*kT*kT*dG[ms]dG[ms]dT[ms]dG[ms]dA[ms]dA[ms]dT[ms]d[5mC]*dT*dT*dT*dA*dT*kT*kA*dA[ms]kA; antisense) [compound 1785599]	94 % control	72 % control	56 % control	37 % control	25 % control	143.3 µg	54 % control	38 % control	16 % control	13 % control	12 % control	12.18 µg									APOE RNA (% UTC) 5 nM (human APOE RNA [1]; 24-hour treatment, 5 nM): 116 % UTC; APOE RNA (% UTC) 13 nM (human APOE RNA [1]; 24-hour treatment, 13 nM): 116 % UTC; APOE RNA (% UTC) 33 nM (human APOE RNA [1]; 24-hour treatment, 33 nM): 100 % UTC; APOE RNA (% UTC) 82 nM (human APOE RNA [1]; 24-hour treatment, 82 nM): 87 % UTC; APOE RNA (% UTC) 205 nM (human APOE RNA [1]; 24-hour treatment, 205 nM): 65 % UTC; APOE RNA (% UTC) 512 nM (human APOE RNA [1]; 24-hour treatment, 512 nM): 48 % UTC; APOE RNA (% UTC) 1,280 nM (human APOE RNA [1]; 24-hour treatment, 1,280 nM): 43 % UTC; APOE RNA (% UTC) 3,200 nM (human APOE RNA [1]; 24-hour treatment, 3,200 nM): 21 % UTC; APOE RNA (% UTC) 8,000 nM (human APOE RNA [1]; 24-hour treatment, 8,000 nM): 9 % UTC; APOE RNA (% UTC) 20,000 nM (human APOE RNA [1]; 24-hour treatment, 20,000 nM): 2 % UTC; IC50 (human APOE RNA [1]; reduction of human APOE RNA, 24-hour treatment): 640 nM; APOE RNA (% control) Cortex (human APOE RNA [2]; cortex): 35 % control; APOE RNA (% control) Spinal Cord (human APOE RNA [2]; spinal cord): 54 % control; APOE RNA (% control) Cortex (human APOE RNA [3]; cortex): 55 % control; APOE RNA (% control) Spinal Cord (human APOE RNA [3]; spinal cord): 20 % control
Aks^mCeoTeoTesGesGksTdsGdzAdzAdzTds^mCdsTdsTdsTdsAdzTksTksAesAe (kA*e[5mC]eTeT*eG*kG*dT*dG[ms]dA[ms]dA[ms]dT*d[5mC]*dT*dT*dT*dA[ms]kT*kT*eA*eA) [Compound No. 1809635]	95 % control	84 % control	62 % control	30 % control	16 % control	146.7 µg	51 % control	27 % control	13 % control	13 % control	18 % control		40 % control	30 % control	44 % control	27 % control	29 % control and 25 % control	24 % control and 35 % control	52‡ % control	50 % control	APOE RNA (% control) Cortex (human APOE RNA [6]; 300 μg ICV, 56 days post-dose): 19 % control; APOE RNA (% control) Cortex (human APOE RNA [6]; 300 μg ICV, 168 days post-dose): 35 % control; APOE RNA (% control) Cortex (human APOE RNA [6]; 300 μg ICV, 342 days post-dose): 68 % control; APOE RNA (% control) Cortex (human APOE RNA [6]; [8]): 55 % control; APOE RNA (% control) Cortex (human APOE RNA [6]; [9]): 67 % control; APOE RNA (% control) Spinal Cord (human APOE RNA [6]; 300 μg ICV, 28 days post-dose): 11 % control and 18 % control; APOE RNA (% control) Spinal Cord (human APOE RNA [6]; 300 μg ICV, 56 days post-dose): 11 % control; APOE RNA (% control) Spinal Cord (human APOE RNA [6]; 300 μg ICV, 112 days post-dose): 13 % control and 14 % control; APOE RNA (% control) Spinal Cord (human APOE RNA [6]; 300 μg ICV, 140 days post-dose): 27‡ % control; APOE RNA (% control) Spinal Cord (human APOE RNA [6]; 300 μg ICV, 168 days post-dose): 26 % control; APOE RNA (% control) Spinal Cord (human APOE RNA [6]; 300 μg ICV, 342 days post-dose): 36 % control; APOE RNA (% control) Spinal Cord (human APOE RNA [6]; [7]): 33 % control; APOE RNA (% control) Spinal Cord (human APOE RNA [6]; [8]): 26 % control; APOE RNA (% control) Spinal Cord (human APOE RNA [6]; [9]): 41 % control
TezTeoGeoGksTdsGdzAdzAdzTds^mCdsTdsTdsTdsAdzTksTksAesAesAes^mCe (antisense eT[ms]eTeGkG*dT*dG[ms]dA[ms]dA[ms]dT*d[5mC]*dT*dT*dT*dA[ms]kT*kT*eA*eA*eA*e[5mC]) [Compound No. 1809814]	97 % control	85 % control	72 % control	47 % control	37 % control	309.5 µg	81 % control	60 % control	45 % control	29 % control	28 % control	78.7 µg	62 % control	57 % control	84 % control	53 % control	55 % control	57 % control	71 % control	68 % control	APOE RNA (% control) Cortex (human APOE RNA [6]; [8]): 90 % control; APOE RNA (% control) Cortex (human APOE RNA [6]; [9]): 95 % control; APOE RNA (% control) Spinal Cord (human APOE RNA [6]; 300 μg ICV, 28 days post-dose): 52 % control; APOE RNA (% control) Spinal Cord (human APOE RNA [6]; 300 μg ICV, 112 days post-dose): 39 % control; APOE RNA (% control) Spinal Cord (human APOE RNA [6]; 300 μg ICV, 140 days post-dose): 43 % control; APOE RNA (% control) Spinal Cord (human APOE RNA [6]; [7]): 57 % control; APOE RNA (% control) Spinal Cord (human APOE RNA [6]; [8]): 54 % control; APOE RNA (% control) Spinal Cord (human APOE RNA [6]; [9]): 84 % control
